Laboratory results published in publication PMC7536232, “Saturation transfer difference NMR on the integral trimeric membrane transport protein GltPh determines cooperative substrate binding” (Scientific Reports, 2020).

Target: T1, GltPh (Pyrococcus horikoshii, UniProt O59010)
T1 construct: gene PH1295; WT GltPh, homotrimer, detergent-solubilised (DDM)
T1 sequence (O59010 1-425): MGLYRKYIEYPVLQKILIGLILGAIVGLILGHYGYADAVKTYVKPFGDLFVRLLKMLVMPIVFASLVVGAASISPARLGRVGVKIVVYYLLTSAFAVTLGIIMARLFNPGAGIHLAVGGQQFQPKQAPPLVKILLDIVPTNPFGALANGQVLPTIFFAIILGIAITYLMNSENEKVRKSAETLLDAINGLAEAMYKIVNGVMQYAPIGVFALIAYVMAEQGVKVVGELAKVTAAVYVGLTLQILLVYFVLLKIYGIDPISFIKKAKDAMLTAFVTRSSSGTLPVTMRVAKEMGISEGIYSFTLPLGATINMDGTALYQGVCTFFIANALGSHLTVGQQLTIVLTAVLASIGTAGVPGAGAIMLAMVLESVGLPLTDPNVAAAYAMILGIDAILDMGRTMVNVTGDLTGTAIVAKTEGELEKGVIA
Assay: STD NMR titration, γ-protons; DDM micelles ([…] in proteoliposomes)
Assay type: binding

N[C@@H](CCC(=O)O)C(=O)O [L-glutamate]
Kd: 414 µM
